The values below come from patent publication US12012373B2, “Cannabinoid derivatives” (CANOPY GROWTH CORPORATION, priority 2019, dated 2024).

Experiment [1] concerns the target T1, human CB1 receptor (Homo sapiens, UniProt P21554). Nature of the experiment: PathHunter β-Arrestin functional assay, CB1 receptor, antagonist mode. Type of experiment: cell-based. The arrangement: membranes prepared in house. Conditions: for inhibition at 4 µM: read-out: relative inhibition in comparison to rimonabant.
Experiment [2] deals with T1, human CB1 receptor. Put plainly: biochemical. Type of experiment: binding. The conditions noted are these: for Selectivity CB1: fold difference in binding between CB1 and CB2, shown in the column of the receptor with higher affinity, 1.00 in both = about same affinity. Set-up: membranes prepared in house.
For a further experiment, the target named is T2, human CB2 receptor (Homo sapiens, UniProt P34972).
T2 construct: membranes prepared in house
T2 sequence (P34972 whole entry): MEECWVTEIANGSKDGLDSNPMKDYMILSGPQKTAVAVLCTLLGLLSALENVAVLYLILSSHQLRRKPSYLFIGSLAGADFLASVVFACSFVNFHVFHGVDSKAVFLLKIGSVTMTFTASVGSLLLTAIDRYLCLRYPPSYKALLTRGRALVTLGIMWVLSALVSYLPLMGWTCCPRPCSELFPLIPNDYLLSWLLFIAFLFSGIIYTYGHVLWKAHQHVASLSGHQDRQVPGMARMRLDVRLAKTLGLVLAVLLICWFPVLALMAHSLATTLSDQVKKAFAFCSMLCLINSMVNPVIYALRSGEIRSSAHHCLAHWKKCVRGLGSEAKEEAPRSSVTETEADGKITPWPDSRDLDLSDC
Nature of the experiment: CB2 radioligand competitive binding assay ([3H]CP 55,940 displacement). The conditions noted are these: for IC50: [3H]CP 55,940 displacement, CHO-K1 membranes expressing human CB2 receptor; for Selectivity CB2: fold difference in binding between CB1 and CB2, shown in the column of the receptor with higher affinity, 1.00 in both = about same affinity. As for the experimental part:
Compounds of the present disclosure were tested for CB1 receptor binding affinity and for CB2 receptor binding affinity. As used herein, “binding affinity” is represented by the IC50 value, which was experimentally determined as described herein. The lower the IC50 value the higher the binding affinity. A compound of the present disclosure may be said to have “binding selectivity” If it has a higher binding affinity for one receptor compared to the other.
The membranes were prepared from CHO-K1 (Chinese hamster ovary) cells stably transfected with the human CB2 receptor (Cat. #ES-111-C; Perkin Elmer, Boston, MA). The cells were grown adherently and maintained in Ham's F12 medium containing 10% fetal bovine serum (FBS), penicillin, streptomycin and geneticin (G418) at 37° C. in a humid atmosphere of 5% CO2 following the manufacturer's Instructions.
For membrane preparation the cells were washed with PBS and scraped off the plates in cold homogenization buffer (25 mM HEPES (pH 7.4), 2 mM EDTA) containing protease inhibitor cocktail (Sigma Cat. #P8340). The cell suspension was homogenized with a Pro-PK-01200D Polytron Homogenizer (Pro Scientific) and then centrifuged for 30 min at 120,000×g. The supernatant was discarded and the pellet was re-suspended in the homogenization buffer and stored at −80° C. until the time of use.
In this experiment, 3H radiolabeled CP 55,940, i.e. [3H]CP 55,940 (Perkin Elmer, Boston, MA), was used as a radioligand for the CB2 receptor to determine the binding affinity of compounds for the CB2 receptor (Scheme 8; above).
The competition binding experiments (single dose and dose-response) were performed by incubating 0.6 nM of [3H]CP55,940 (specific activity 101 Ci/mmol, Perkin Elmer) and different concentrations of compounds disclosed herein with membranes prepared as above from CHO-K1 cells expressing human CB2 receptor (1 μg of protein/well), 50 mM Tris-HCl (pH 7.4), 5 mM MgCl2, 1 mM CaCl2, and 2 mg/mL BSA.
For the single dose experiments, the compound stocks (usually 10 mM in DMSO) were diluted to working stocks in the binding buffer to give the final compound concentrations of 10 μM and 1 μM. For the dose-response experiments the test compounds were sequentially diluted to provide the desired concentration range for the IC50 determination. In each case the compounds were pre-incubated with the membrane for 20 min, before adding the radioligand.
After incubation with the radioligand for 60 min at 37° C., the incubation was terminated by rapid filtration of assay mixture through MultiScreen®HTS^+ 96-well filter plates (Millipore, Cat. #MSFCNXB), pre-soaked for 60 min with 50 mM Tris-HCl (pH 7.4) containing 0.33% polyethylenimine (PEI). The nonspecific binding (NSB) was determined in the presence of 10 μM unlabeled CP55,940. After drying the filter plate at 50° C. for at least 60 min, the filter-bound radioactivity was determined by scintillation spectrometry using the 1450 MicroBeta Plate Counter (Perkin Elmer, Boston, MA). From the dose-response experiments, the IC50 values were determined (see Table 1, CB2 IC50).

T1 sequence (P21554 whole entry): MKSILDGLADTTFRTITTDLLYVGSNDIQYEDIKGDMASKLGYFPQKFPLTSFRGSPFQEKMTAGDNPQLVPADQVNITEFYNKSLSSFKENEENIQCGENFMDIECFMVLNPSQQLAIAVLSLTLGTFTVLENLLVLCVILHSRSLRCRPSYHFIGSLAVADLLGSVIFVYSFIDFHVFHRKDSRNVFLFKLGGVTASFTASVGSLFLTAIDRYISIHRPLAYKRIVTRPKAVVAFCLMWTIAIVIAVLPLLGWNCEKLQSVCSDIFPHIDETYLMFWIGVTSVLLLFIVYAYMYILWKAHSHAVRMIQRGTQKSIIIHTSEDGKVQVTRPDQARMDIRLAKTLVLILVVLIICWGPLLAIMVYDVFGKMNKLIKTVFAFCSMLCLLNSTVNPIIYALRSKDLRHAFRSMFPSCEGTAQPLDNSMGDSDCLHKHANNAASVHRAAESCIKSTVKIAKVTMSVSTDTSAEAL

Usually IC50 stands for the midpoint of a concentration-inhibition curve. Usually inhibition stands for the relative decrease from the control value, in per cent. Consider `C=C(C)[C@@H]1CCC(C)=C[C@H]1c1c(O)cc(CCCCC)c(S(=O)(=O)N(CC)CC)c1O` [Compound 62d, N,N-Diethyl-2,6-Dihydroxy-5′-Methyl-4-Pentyl-2′-(Prop-1-En-2-Yl)-1′,2′,3′,4′-Tetrahydro-[1,1′-Biphenyl]-3-Sulfonamide], for which the IC50 is 775 to 3000 nM against human CB1 receptor [1], 100 to 990 nM at human CB1 receptor [2] and 100 to 990 nM at human CB2 receptor. Also, the inhibition at 4 µM at human CB1 receptor [1] was in the range of 11 to 79%. The “Selectivity CB2” value at human CB2 receptor stood at 6.29 fold.

On human CB1 receptor [2], `C=C(C)[C@@H]1CCC(C)=C[C@H]1c1c(O)cc(CCCCC)c(S(=O)(=O)N(C)C)c1O` (stereo in doubt) [Compound 21d, 2,6-dihydroxy-N,N,5′-trimethyl-4-pentyl-2′-(prop-1-en-2-yl)-1′,2′,3′,4′-tetrahydro-[1,1′-biphenyl]-3-sulfonamide] displayed an IC50 of 100 to 990 nM. Besides, on human CB2 receptor, the concentration for half-maximal inhibition (IC50) is 100 to 990 nM and the “Selectivity CB2” value is recorded as 1.41 fold.

In the case of `C=C(C)[C@@H]1CCC(C)=C[C@H]1c1c(O)cc(CCCCC)c(S(=O)(=O)NCc2ccccc2)c1O` [Compound 25d, N-benzyl-2,6-dihydroxy-5′-methyl-4-pentyl-2′-(prop-1-en-2-yl)-1′,2′,3′,4′-tetrahydro-[1,1′-biphenyl]-3-sulfonamide], the IC50 on human CB1 receptor [2] and on human CB2 receptor was 1000 to 5000 nM each time. In addition, the “Selectivity CB2” value at human CB2 receptor is recorded as 2.00 fold.

In the case of `CCCCCc1cc(O)c(C2C=C(C)CCC2)c(O)c1S(N)(=O)=O` (stereo not shown) [Compound 19c, 2,6-dihydroxy-5′-methyl-4-pentyl-1′,2′,3′,4′-tetrahydro-[1,1′-biphenyl]-3-sulfonamide], on human CB1 receptor [2], the IC50 is 1000 to 5000 nM and the “Selectivity CB1” value amounted to 1.00 fold. Besides, at human CB2 receptor, the IC50 was 1000 to 5000 nM and the “Selectivity CB2” value was 1.00 fold.

Consider `C=C(C)[C@@H]1CCC(C)=C[C@H]1c1c(O)cc(CCCCC)c(S(=O)(=O)Nc2ccccc2)c1O` [Compound 24d, 2,6-dihydroxy-5′-methyl-4-pentyl-N-phenyl-2′-(prop-1-en-2-yl)-1′,2′,3′,4′-tetrahydro-[1,1′-biphenyl]-3-sulfonamide], for which the IC50 at human CB1 receptor [2] and on human CB2 receptor was 1000 to 5000 nM throughout. Also, at human CB2 receptor, the “Selectivity CB2” value amounted to 1.67 fold.

With `C=C(C)[C@@H]1CCC(C)=C[C@H]1c1c(O)cc(CCCCC)c(S(=O)(=O)N(CCO)CCBr)c1O` [Compound 63d, N-(2-bromoethyl)-2,6-dihydroxy-N-(2-hydroxyethyl)-5′-methyl-4-pentyl-2′-(prop-1-en-2-yl)-1′,2′,3′,4′-tetrahydro-[1,1′-biphenyl]-3-sulfonamide], at human CB1 receptor [2], the IC50 lay in the range of 1000 to 5000 nM and the “Selectivity CB1” value is listed as 1.00 fold. Besides, at human CB2 receptor, the IC50 is 1000 to 5000 nM and the “Selectivity CB2” value was found to be 1.00 fold.

As to `C=C(C)[C@@H]1CCC(C)=C[C@H]1c1c(O)cc(CCCCC)c(S(=O)(=O)N2CCOCC2)c1O` [Compound 28d, 5′-Methyl-3-(Morpholinosulfonyl)-4-Pentyl-2′-(Prop-1-En-2-Yl)-1′,2′,3′,4′-Tetrahydro-[1,1′-Biphenyl]-2,6-Diol], the concentration for half-maximal inhibition (IC50) was 100 to 990 nM on human CB1 receptor [2] and below 100 nM at human CB2 receptor. Further, the “Selectivity CB2” value at human CB2 receptor is 8.20 fold.

For the molecule `C=C(C)[C@@H]1CCC(C)=C[C@H]1c1c(O)cc(CCC)c(S(=O)(=O)NC(C)C)c1O` [Compound 68d, 2,6-dihydroxy-N-isopropyl-5′-methyl-2′-(prop-1-en-2-yl)-4-propyl-1′,2′,3′,4′-tetrahydro-[1,1′-biphenyl]-3-sulfonamide], the 50% inhibitory concentration (IC50) on human CB1 receptor [2] was 1000 to 5000 nM. On human CB2 receptor, the IC50 lay in the range of 1000 to 5000 nM and the “Selectivity CB2” value was 1.74 fold.

Take `C=C(C)[C@@H]1CCC(C)=C[C@H]1c1c(O)cc(CCC)c(S(=O)(=O)N(C)C)c1O` [Compound 67d, 2,6-dihydroxy-N,N,5′-trimethyl-2′-(prop-1-en-2-yl)-4-propyl-1′,2′,3′,4′-tetrahydro-[1,1′-biphenyl]-3-sulfonamide]: the concentration for half-maximal inhibition (IC50) against human CB1 receptor [2] was 1000 to 5000 nM. In addition, on human CB2 receptor, the IC50 was in the range of 1000 to 5000 nM and the “Selectivity CB2” value came to 3.08 fold.

`CCCCCc1cc(O)c(C2C=C(C)CCC2)c(O)c1S(=O)(=O)NC1CC1` (stereo not shown) [Compound 22c, N-cyclopropyl-2,6-dihydroxy-5′-methyl-4-pentyl-1′,2′,3′,4′-tetrahydro-[1,1′-biphenyl]-3-sulfonamide]: on human CB1 receptor [1], the IC50 lay within 775 to 3000 nM and the inhibition at 4 µM was in the range of 11 to 79%. The molecule also gave a half-maximal inhibitory concentration (IC50) against human CB1 receptor [2] of 1000 to 5000 nM. On human CB2 receptor, the half-inhibitory concentration (IC50) was in the range of 100 to 990 nM and the “Selectivity CB2” value is on record as 11.59 fold.

`CCCCCc1cc(O)c(C2C=C(C)CCC2)c(O)c1S(=O)(=O)Nc1ccccc1` (stereo not shown) [Compound 24c, 2,6-dihydroxy-5′-methyl-4-pentyl-N-phenyl-1′,2′,3′,4′-tetrahydro-[1,1′-biphenyl]-3-sulfonamide]: the half-inhibitory concentration (IC50) lay within 1000 to 5000 nM against human CB1 receptor [2] and 100 to 990 nM on human CB2 receptor. Further, the “Selectivity CB2” value at human CB2 receptor was 3.60 fold.

On human CB1 receptor [2], `C=C(C)[C@@H]1CCC(C)=C[C@H]1c1c(O)cc(CCCCC)c(S(=O)(=O)NC(C)C)c1O` (stereo in doubt) [Compound 23d, 2,6-dihydroxy-N-isopropyl-5′-methyl-4-pentyl-2′-(prop-1-en-2-yl)-1′,2′,3′,4′-tetrahydro-[1,1′-biphenyl]-3-sulfonamide] gave a concentration for half-maximal inhibition (IC50) of 1000 to 5000 nM. In addition, on human CB2 receptor, the concentration for half-maximal inhibition (IC50) was in the range of 100 to 990 nM and the “Selectivity CB2” value is recorded as 2.56 fold.

As for `CCCCCc1cc(O)c(C2C=C(C)CCC2)c(O)c1S(=O)(=O)N1CCOCC1` (stereo not shown) [Compound 28c, 5′-methyl-3-(morpholinosulfonyl)-4-pentyl-1′,2′,3′,4′-tetrahydro-[1,1′-biphenyl]-2,6-diol], at human CB1 receptor [1], the half-maximal inhibitory concentration (IC50) is 775 to 3000 nM and the inhibition at 4 µM was 11 to 79%. For the same molecule, the IC50 on human CB2 receptor fell in the range of 100 to 990 nM.

In turn, `C=C(C)[C@@H]1CCC(C)=C[C@H]1c1c(O)cc(CCCCC)c(S(C)(=O)=O)c1O` [Compound 3d, 5′-methyl-3-(methylsulfonyl)-4-pentyl-2′-(prop-1-en-2-yl)-1′,2′,3′,4′-tetrahydro-[1,1′-biphenyl]-2,6-diol] showed a 50% inhibitory concentration (IC50) against human CB1 receptor [2] of 1000 to 5000 nM. Further, on human CB2 receptor, the half-maximal inhibitory concentration (IC50) lay in the range of 1000 to 5000 nM and the “Selectivity CB2” value is recorded as 2.00 fold.

For the molecule `C=C(C)[C@@H]1CCC(C)=C[C@H]1c1c(O)cc(CCCCC)c(S(=O)(=O)NC2CC2)c1O` [Compound 22d, N-Cyclopropyl-2,6-Dihydroxy-5′-Methyl-4-Pentyl-2′-(Prop-1-En-2-Yl)-1′,2′,3′,4′-Tetrahydro-[1,1′-Biphenyl]-3-Sulfonamide], on human CB1 receptor [1], the 50% inhibitory concentration (IC50) was in the range of 775 to 3000 nM and the inhibition at 4 µM was 11 to 79%. The molecule further registered an IC50 at human CB1 receptor [2] of 1000 to 5000 nM. Besides, on human CB2 receptor, the half-maximal inhibitory concentration (IC50) was in the range of 1000 to 5000 nM and the “Selectivity CB2” value turned out to be 1.52 fold.

For `CCCCCc1cc(O)c(C2C=C(C)CCC2)c(O)c1C(=O)NS(=O)(=O)c1cccnc1` (stereo not shown) [Compound 71c, 2,6-dihydroxy-5′-methyl-4-pentyl-N-(pyridin-3-ylsulfonyl)-1′,2′,3′,4′-tetrahydro-[1,1′-biphenyl]-3-carboxamide], on human CB1 receptor [1], the IC50 was 775 to 3000 nM and the inhibition at 4 µM was 11 to 79%. Besides, on human CB1 receptor [2], the concentration for half-maximal inhibition (IC50) fell in the range of 100 to 990 nM and the “Selectivity CB1” value is given as 1.14 fold. This molecule gave an IC50 at human CB2 receptor of 100 to 990 nM.

Take `C=C(C)[C@@H]1CCC(C)=C[C@H]1c1c(O)cc(CCCCC)c(S(=O)(=O)OCC(F)(F)F)c1O` [Compound 64d, 2,2,2-trifluoroethyl-2,6-dihydroxy-5′-methyl-4-pentyl-2′-(prop-1-en-2-yl)-1′,2′,3′,4′-tetrahydro-[1,1′-biphenyl]-3-sulfonate]: on human CB1 receptor [2], the IC50 fell in the range of 100 to 990 nM and the “Selectivity CB1” value is 2.00 fold. The IC50 on human CB2 receptor was in the range of 100 to 990 nM.

As to `CCCCCc1cc(O)c(C2C=C(C)CCC2)c(O)c1S(=O)(=O)NCc1ccccc1` (stereo not shown) [Compound 25c, N-benzyl-2,6-dihydroxy-5′-methyl-4-pentyl-1′,2′,3′,4′-tetrahydro-[1,1′-biphenyl]-3-sulfonamide], the concentration for half-maximal inhibition (IC50) against human CB1 receptor [2] lay within 100 to 990 nM. Also, at human CB2 receptor, the IC50 was 100 to 990 nM and the “Selectivity CB2” value stood at 1.50 fold.
